The values below come from US20020035243A1, “Transport system conjugates” (priority 1998, published 2002).

The subject of assay [1] is smooth muscle cells. Nature of the assay: Penetration of carrier-conjugated peptides into smooth muscle cells; immunofluorescence of α-SM-actin polymerization. As to conditions: 1 mg/ml in cell culture solution, 1 hour after treatment. The format is cell-based, Wistar rats. The protocol: Smooth muscle cells are isolated by enzymatic cleavage from the thoracic aorta of 6-week-old Wistar rats. 10,000 cells are placed on 60 mm Petri dishes and allowed to grow for 5-6 h in DME and 10% foetal calf serum. The cells are incubated with the peptides for approximately 1 hour in the incubator, then washed twice with PBS (0.5 mmol CaCl2, 3 mmol MgCl2), then fixed with 3% parafornaldehyde for 10 min and permeabilized with 0.1% Triton X-100 in PBS for 1 minute, double-immunofluorescent stained for α-SM-actin and total actin with mouse anti-α-SM 1 and rabbit polyclonal anti-actin antibody, respectively, followed by staining with sheep anti-mouse IgG conjugated with tetramethylrhodamine B isothiocyanate or fluorescent isothiocyanate and sheep anti-rabbit IgG conjugated with fluorescent isothiocyanate, respectively. The preparations are washed with PBS and fixed in polyvinyl alcohol buffer. Photographs are taken with a Zeiss Axiophot light microscope using a fluorescein or rhodamine filter:
FIGS. 1-6 show the immunofluorescence photographs of the inhibition of polymerization 1 hour after treatment of the cell cultures with the substances, the concentration of the cell culture solution being 1 mg/ml.

The subject of assay [2] is Cloudman S91 melanoma cells. The experiment in a line: Melanin formation in melanoma cells with and without α-MSH (indirect measure of TMP penetration). The format is cell-based. The conditions noted are these: for OD450 nm (melanin content of lysate): 5 days. The protocol: Cloudman S91 melanoma cells (ATCC CCL-53.1) are cultivated to confluence in DMEM+10% FCS in 24-well culture dishes. The S91 cells (0.5 ml per culture) are incubated for 5 days with and without TMP and with 15 nM α-MSH and then harvested. The TMP/TMP-L is added at least 2 hours before the α-MSH. For determination of the melanin, the medium is discarded and the adhering cells are washed 1× with PBS. The cells are then lysed with 0.1 ml of 0.2 M NaOH and the melanin content of the lysate is measured at 450 nm. The cultures of the experimental series are made up in duplicate, the 2nd batch being used to determine the cell count by the MTT test (Mosmann T., J. of Immun. Methods 1983, 65, 55-63). The cell count indicates growth inhibiting effects and the melanin content is given relative to the cell count (OD450 nm/10^6 cells).

The test system of a further assay is HaCaT cells. The experiment in a line: Penetration of carrier-conjugated peptides into keratinocytes; fluorescein-streptavidin staining, confocal microscopy. The format is cell-based. The conditions noted are these: 4 hours incubation, 25 μM. As for the experimental part:
Approx. 5×10^5 HaCaT cells (a gift from Dr. N. E. Fusenig, Deutsches Krebsforschungszentrum Heidelberg) are inoculated into 60 mm culture dishes from a confluent culture (DMEM+5% FCS) and allowed to grow for about 12 hours. The cell cultures are incubated for 4 hours with 25 μM Ac-Leu-Gly-Asp[NH(CH2)5—NH—CO-biotin]-Lys(ε-D,L-6,8-dithiooctanamide)-NH—CH2—CH2—NH-octanoylamide and the cells are washed (2× with FCS-free DMEM) and fixed for 5 min at −20° C. with EtOH/acetic acid (95/5). They are washed three times with PBS and then bound to fluorescein-labelled streptavidin (1000×diluted in PBS+10% FCS). Prior to microscopy the cells were washed a further three times with PBS and dried. Photographs were taken with a confocal scanning laser microscope (Sarastro 2000, Molecular Dynamics) at an excitation wavelength of 488 nm using a 510 nm emission filter.

Assay [3] deals with smooth muscle cells. Nature of the assay: Penetration of carrier-conjugated peptides into smooth muscle cells; immunofluorescence of α-SM-actin polymerization. The format is cell-based, Wistar rats. The conditions noted are these: c=0.5 mg, 1 mg and 2 mg per ml of cell culture solution.
A further assay has as its system α-smooth muscle actin. As to conditions: microinjected into cells; cited from earlier work.
The mark [4] stands for this setting: S91, 30 nM substance plus 15 nM α-MSH.
[5] abbreviates: S91, 30 nM substance, without α-MSH, untreated control about the same.

Numbered stars: 1 amine (or outer) side, 2 acyl side, 3 side chain; on linkers, the order of the positions; unused ones are H or OH. Ends that are not written are not given here. Ethylenediamine = C(CN[*:2])N[*:1]

“Ac-Glu-Glu-Glu-Asp-Lys-NH—CH2—CH2—NH—C═O—(CH2)6—CH3 (Ac-EEEDK-{Ethylenediamine-octanoyl}) [reference compound]”: in the assay with smooth muscle cells [1], the “fluorescein staining (left picture)” value is given as “strong”, the “penetration of the peptide into the cell” value is recorded as “no penetration”, the “polymerization of the smooth α-actin filaments” value is given as “completely developed” and the “rhodamine staining of the smooth muscle α-actin polymers (right picture)” value (“rhodamine staining” below) is reported as “strong”.

For “H-Glu-Asp-Tyr-His-Ser-Leu-Tyr-Asn-Ser-His-Leu-Lys(ε-D,L-6,8-dithiooctanamide)-NH—CH2CH2—NH-octanylamide (H-EDYHSLYNSHLK-{Ethylenediamine-octanoyl}; not fully specified (residue 12)) [transporter-bound TMP]”, the “OD450 nm (melanin content of lysate)” value in assay [2] (setting [4]) and in assay [2] (setting [5]) was “approximately 0.2” each time. Also, the “effect on melanin formation induced by α-MSH” value in assay [2] (S91 treated with α-MSH combined with transporter-bound TMP) is “prevention of melanin formation”.

Consider “Ac-Leu-Gly-Asp[NH(CH2)5—NH—CO-biotin]-Lys(ε-D,L-6,8-dithio-octanamide)-NH—CH2CH2—NH-octanoylamide [Batch d]”, for which the “fluorescent staining of cells” value in the assay on HaCaT cells is “attractive fluorescent staining”.

In the case of “α-MSH: stimulant of melanin formation added to S91 cells at 15 nM (Ac-SYSMEHFRWGKPV-NH2; ends and bridges not checked; UniProt P01189 138-150, looked up) [reference compound]”, in assay [2] (S91, 15 nM α-MSH alone), the “OD450 nm (melanin content of lysate)” value is recorded as “approximately 0.7”.

As for “Ac-Glu-Glu-Glu-Asp-Lys-NH—CH2—CH2—NH-hexadecanoylamide (Ac-EEEDK-{Ethylenediamine-hexadecanoyl}) [reference compound]”, in the assay with smooth muscle cells [1], the “fluorescein staining (left picture)” value was “strong”, the “penetration of the peptide into the cell” value is listed as “no penetration”, the “polymerization of the smooth α-actin filaments” value is “completely developed” and the “rhodamine staining” value is “strong”.

With `CCCCCCCC(=O)NNCCNC(=O)C(N)CCCCNC(=O)CCCCC1CCSS1` [free transporter, H-Lys(ε-D,L-6,8-dithiooctanamide)-NH—CH2CH2—NH—NH-octanoylamide], the “OD450 nm (melanin content of lysate)” value in assay [2] (setting [4]) was “approximately 0.7”; in assay [2] (setting [5]), “approximately 0.2”.

“Ac-Glu-Glu-Glu-Asp-Lys(E-D,L-6,8-dithiooctanoylamide)-NH—CH2—CH2—NH-hexadecanoylamide (Ac-EEEDK(D,L‑6,8‑dithiooctanoyl)-{Ethylenediamine-hexadecanoyl})”: in the assay on smooth muscle cells [1], the “fluorescein staining (left picture)” value is given as “slight”, the “penetration of the peptide into the cell” value was “good penetration”, the “polymerization of the smooth α-actin filaments” value was “very poorly developed” and the “rhodamine staining” value was “slight”.

In the case of “Ac-Glu-Glu-Glu-Asp-Lys(ε-D,L-6,8-dithiooctanoylamide)-NH—CH2—CH2—NH—C═O—(CH2)6—CH3 (Ac-EEEDK(D,L‑6,8‑dithiooctanoyl)-{Ethylenediamine-octanoyl})”, in the assay with smooth muscle cells [1], the “fluorescein staining (left picture)” value is on record as “slight”, the “penetration of the peptide into the cell” value is on record as “best penetration”, the “polymerization of the smooth α-actin filaments” value was “very poorly developed” and the “rhodamine staining” value is “slight”. In addition, the dose-effect relationship result in the assay with smooth muscle cells [3] is “qualitative dose-effect relationship”.

In the case of “Ac-Glu-Glu-Glu-Asp-NH2 (Ac-EEED-NH2) [reference compound]”, the “polymerization of α-smooth muscle actin after microinjection in excess” value in the assay on α-smooth muscle actin is recorded as “inhibits”. Besides, in the assay with smooth muscle cells [1], the “fluorescein staining (left picture)” value was “strong”, the “penetration of the peptide into the cell” value is “no penetration”, the “polymerization of the smooth α-actin filaments” value is “completely developed” and the “rhodamine staining” value is reported as “strong”.

For “Ac-Leu-Gly-Asp[NH(CH2)5—NH—CO-biotin]-OH [Ac-Leu-Gly-Asp-OH]”, in the assay with HaCaT cells, the “fluorescent staining of cells” value is “no fluorescent staining”.

As to “Ac-Glu-Glu-Glu-Asp-Lys(ε-D,L-6,8-dithiooctanoylamide)-NH2 (Ac-EEEDK(D,L‑6,8‑dithiooctanoyl)-NH2)”, in the assay with smooth muscle cells [1], the “fluorescein staining (left picture)” value is listed as “partial”, the “penetration of the peptide into the cell” value is listed as “penetration”, the “polymerization of the smooth α-actin filaments” value is “partially developed” and the “rhodamine staining” value is given as “partial”.

Regarding “EDYHSLYNSHL [free TMP, reference compound]”, the “OD450 nm (melanin content of lysate)” value is listed as “approximately 0.7” in assay [2] (setting [4]) and “approximately 0.2” in assay [2] (setting [5]).
